Where a name gives a salt, the structure may show the parent alone.

These results are taken from patent EP0335292A2, “2,6-Methano-1,3-benzodiazocines, a process for their preparation and their use as medicaments” (HOECHST-ROUSSEL PHARMACEUTICALS INCORPORATED, priority 1988, dated 1989).

The experiment concerns mice. Kind of experiment: modified phenyl-p-quinone writhing assay in mice (analgesia). In kind it is in vivo. The note with it: Mus musculus, sc; read-out: Analgesic Activity (Inhibition of Writhing ED₅₀mg/kg,s.c.). On the procedure: The 2,6-methano-1,3-benzodiazocines of this invention are useful as analgetics due to their ability to alleviate pain in mammals. The procedure employed to determine analgetic activity is a modification of the phenyl-p-quinone writhing assay in mice, a standard assay for analgesia [Proc. Soc. Exptl. Bio. Med., 95 729(1957)]. Pursuant to the modified procedure, phenyl-p-benzoquinone (Eastman, 12.5 mg) is dissolved in 5 ml of 95% ethanol and the solution is diluted to a total volume of 100 ml with distilled water. The solution is administered to the subject mice intraperitoneally at a dose of 10 ml per kg of body weight. A characteristic "writhe", an inward rotation of one or more feet with twisting and turning of the trunk, drawing in of the abdominal wall, lordosis and arching of the back, is produced.
A total of 28 male mice (Charles River, CD-1), weighing 18 to 30 grams, are employed for a time response. The subject animals receive food and water ad libitum. Test compounds are dissolved in distilled water, or suspended in distilled water containing one drop of a suitable surfactant, such as Tween-80.
Four groups of five animals (20 animals) are given the test compound subcutaneously or orally (p.o.) at 15, 30, 45, and 60 minutes prior to administration of the phenyl-p-quinone. A control group (2 animals per group) receive an equal volume of the vehicle. After the administration of the phenyl-p-quinone, the mice are placed separately in one liter beakers, and after five minutes, are observed for ten minutes. The number of writhes for each animal is recorded. The following formula is used to compute the percent inhibition: […]
The time period with the greatest percent of inhibition is considered the peak time. A dose range determination is generally reserved for those compounds which inhibit [formula] writhing by greater than 65-70% at the screening dose. A dose range determination is run in the same manner as the time response except 10 animals per group are tested at the peak time of test drug activity. Fifty animals, four test drug groups, and a vehicle control are employed. Animals are dosed and tested in a randomized manner.
(In general: In writhing tests, fewer writhes than in controls are read as antinociception.)
As for `CN1CCC2CC1N(C)c1ccc(O)cc12.O=C(O)/C=C/C(=O)O` (centres unmarked) [1,2,3,4,5,6-Hexahydro-1,3-dimethyl-2,6-methano-1,3-benzodiazocin-8-ol fumarate], the ED50 was 0.7 mg/kg.
`COc1ccc2c(c1)C1CCN(C)C(C1)N2C` (centres unmarked) [1,2,3,4,5,6-Hexahydro-8-methoxy-1,3-dimethyl-2,6-methano 1,3-benzodiazocine]: the ED50 was found to be 10.2 mg/kg.
Turning to `CN1CCC2CC1N(C)c1c(Br)cc(O)cc12` (centres unmarked) [10-Bromo-1,2,3,4,5,6-hexahydro-1,3-dimethyl-2,6-methano-1,3-benzodiazocin-8-ol, hemi-fumarate], the ED50 stood at 1.9 mg/kg.
For `CC(C)=CCN1CCC2(C)c3cc(O)ccc3CC1C2C` (centres unmarked) [pentazocine, reference compound], the ED50 came to 1.3 mg/kg.
Turning to `CC(=O)Oc1ccc2c(c1)C1CCN(C)C(C1)N2C` (centres unmarked) [1,2,3,4,5,6-Hexahydro-1,3-dimethyl-2,6-methano-1,3-benzodiazocin-8-ol acetate, fumarate], the ED50 was found to be 0.74 mg/kg.
